Results taken from PubChem BioAssay (NCI).
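48-hour exposure; five concentrations; linearly interpolated endpoints. GI50 is the concentration that inhibits growth by half. At the TGI there is no net growth.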

Key:
Test in all cases: growth of human tumour cells (NCI), 48 h
[1] = system: PC-3 prostate
[2] = system: SK-MEL-2 melanoma
[3] = system: NCI/ADR-RES ovarian
[4] = system: A549 NSCLC
[5] = system: NCI-H522 lung
[6] = system: DU-145 prostate
[7] = system: SR leukemia
[8] = system: 786-0 renal
[9] = system: SW-620 colon
[10] = system: T-47D breast
[11] = system: MDA-MB-435
[12] = system: SN12C renal
[13] = system: OVCAR-4 ovarian
[14] = system: LOX IMVI melanoma
[15] = system: SF-539 CNS
[16] = system: HCT-15 colon
[17] = system: SF-295 CNS
[18] = system: NCI-H226 lung
[19] = system: OVCAR-3 ovarian
[20] = system: U251 CNS
[21] = system: SK-OV-3 ovarian
[22] = system: SF-268 CNS
[23] = system: CCRF-CEM leukemia
[24] = system: MALME-3M melanoma
[25] = system: RXF 393 renal
[26] = system: NCI-H460 lung
[27] = system: SK-MEL-28 melanoma
[28] = system: HS 578T breast
[29] = system: KM12 colon
[30] = system: K-562 leukemia
[31] = system: NCI-H23 lung
[32] = system: UACC-257 melanoma
[33] = system: TK-10 renal
[34] = system: ACHN renal
[35] = system: CAKI-1 renal
[36] = system: HL-60(TB) leukemia
[37] = system: SNB-19 CNS
[38] = system: COLO 205 colon
[39] = system: HOP-92 NSCLC
[40] = system: MCF7 breast
[41] = system: M14 melanoma
[42] = system: SK-MEL-5 melanoma
[43] = system: SNB-75 CNS
[44] = system: MOLT-4 leukemia
[45] = system: HT29 colon
[46] = system: MDA-MB-231 breast
[47] = system: BT-549 breast
[48] = system: HCT-116 colon
[49] = system: UO-31 renal
[50] = system: OVCAR-5 ovarian
[51] = system: A498 renal
[52] = system: UACC-62 melanoma
[53] = system: RPMI-8226 leukemia
[54] = system: HCC-2998 colon
[55] = system: OVCAR-8 ovarian
[56] = system: HOP-62 NSCLC
[57] = system: IGROV1 ovarian

C=CCOc1ccc2c(c1)CC[C@@H]1[C@@H]2CC[C@]2(C)C(=O)/C(=N/O)C[C@@H]12
GI50 [1]: 3.6 µM
TGI [1]: 18.8 µM
GI50 [2]: 3.08 µM
TGI [2]: 10.4 µM
GI50 [3]: 6.92 µM
TGI [3]: > 52 µM
GI50 [4]: 4.45 µM
TGI [4]: > 48.8 µM
GI50 [5]: 5.59 µM
TGI [5]: 17.4 µM
GI50 [6]: 3.1 µM
TGI [6]: 15.6 µM
GI50 [7]: 2.3 µM
TGI [7]: 7.84 µM
GI50 [8]: 4.77 µM
TGI [8]: 25.4 µM
GI50 [9]: 2.33 µM
TGI [9]: 12.2 µM
GI50 [10]: 2.64 µM
TGI [10]: > 40.4 µM
GI50 [11]: 3.27 µM
TGI [11]: 17.2 µM
GI50 [12]: 4.01 µM
TGI [12]: > 44.2 µM
GI50 [13]: 2.17 µM
TGI [13]: 8.6 µM
GI50 [14]: 2.49 µM
TGI [14]: 8.08 µM
GI50 [15]: 15.8 µM
TGI [15]: > 50.1 µM
GI50 [16]: 2.05 µM
TGI [16]: 7.06 µM
GI50 [17]: 14.6 µM
TGI [17]: > 68.2 µM
GI50 [18]: 5.06 µM
TGI [18]: 21.7 µM
GI50 [19]: 7.06 µM
TGI [19]: 25.9 µM
GI50 [20]: 9.8 µM
TGI [20]: > 51 µM
GI50 [21]: 6.97 µM
TGI [21]: 20.3 µM
GI50 [22]: 3.71 µM
TGI [22]: > 41.9 µM
GI50 [23]: 2.51 µM
TGI [23]: 8.67 µM
GI50 [24]: 18 µM
TGI [24]: 44.4 µM
GI50 [25]: 1.98 µM
TGI [25]: 11.8 µM
GI50 [26]: 4.71 µM
TGI [26]: 22.1 µM
GI50 [27]: > 46.5 µM
TGI [27]: > 75.1 µM
GI50 [28]: 1.93 µM
TGI [28]: 11.4 µM
GI50 [29]: 3.27 µM
TGI [29]: 11.2 µM
GI50 [30]: 2.88 µM
TGI [30]: 8.61 µM
GI50 [31]: 10.1 µM
TGI [31]: 52.8 µM
GI50 [32]: 11.8 µM
TGI [32]: 59 µM
GI50 [33]: 1.49 µM
TGI [33]: 13.3 µM
GI50 [34]: 2.58 µM
TGI [34]: > 37.2 µM
GI50 [35]: 1.9 µM
TGI [35]: > 100 µM
GI50 [36]: 0.44 µM
TGI [36]: 6.25 µM
GI50 [37]: 11.4 µM
TGI [37]: > 55.1 µM
GI50 [38]: 3.16 µM
TGI [38]: 12.6 µM
GI50 [39]: 1.52 µM
TGI [39]: 5.98 µM
GI50 [40]: 2.72 µM
TGI [40]: 13.2 µM
GI50 [41]: 5.95 µM
TGI [41]: 27.8 µM
GI50 [42]: 11.6 µM
TGI [42]: 25.7 µM
GI50 [43]: 0.335 µM
TGI [43]: 8.39 µM
GI50 [44]: 2.44 µM
TGI [44]: 6.92 µM
GI50 [45]: 1.81 µM
TGI [45]: 4.68 µM
GI50 [46]: 1.85 µM
TGI [46]: 5.09 µM
GI50 [47]: 2.71 µM
TGI [47]: 19.2 µM
GI50 [48]: 2.04 µM
TGI [48]: 6.82 µM
GI50 [49]: 2.39 µM
TGI [49]: 39.6 µM
GI50 [50]: 4.18 µM
TGI [50]: > 45.4 µM
GI50 [51]: 1.97 µM
TGI [51]: 21.3 µM
GI50 [52]: 14.6 µM
TGI [52]: 32.5 µM
GI50 [53]: 2.74 µM
TGI [53]: 9.35 µM
GI50 [54]: 1.09 µM
TGI [54]: 3.06 µM
GI50 [55]: 9.45 µM
TGI [55]: > 60.2 µM
GI50 [56]: 6.08 µM
TGI [56]: > 49.3 µM
GI50 [57]: 3.42 µM
TGI [57]: 14.2 µM
